{
  "source": "paper PMC9995120",
  "about": "“Drug specificity and affinity are encoded in the probability of cryptic pocket opening in myosin motor domains” (eLife, 2023)",
  "key": {"[1]": {"biological_target": "T1, β-cardiac myosin (Homo sapiens, UniProt P12883)", "T1 construct": "gene MYH7; with actin (porcine ventricles); endogenous C2C12 light chains", "T1 sequence (P12883 1-842)": "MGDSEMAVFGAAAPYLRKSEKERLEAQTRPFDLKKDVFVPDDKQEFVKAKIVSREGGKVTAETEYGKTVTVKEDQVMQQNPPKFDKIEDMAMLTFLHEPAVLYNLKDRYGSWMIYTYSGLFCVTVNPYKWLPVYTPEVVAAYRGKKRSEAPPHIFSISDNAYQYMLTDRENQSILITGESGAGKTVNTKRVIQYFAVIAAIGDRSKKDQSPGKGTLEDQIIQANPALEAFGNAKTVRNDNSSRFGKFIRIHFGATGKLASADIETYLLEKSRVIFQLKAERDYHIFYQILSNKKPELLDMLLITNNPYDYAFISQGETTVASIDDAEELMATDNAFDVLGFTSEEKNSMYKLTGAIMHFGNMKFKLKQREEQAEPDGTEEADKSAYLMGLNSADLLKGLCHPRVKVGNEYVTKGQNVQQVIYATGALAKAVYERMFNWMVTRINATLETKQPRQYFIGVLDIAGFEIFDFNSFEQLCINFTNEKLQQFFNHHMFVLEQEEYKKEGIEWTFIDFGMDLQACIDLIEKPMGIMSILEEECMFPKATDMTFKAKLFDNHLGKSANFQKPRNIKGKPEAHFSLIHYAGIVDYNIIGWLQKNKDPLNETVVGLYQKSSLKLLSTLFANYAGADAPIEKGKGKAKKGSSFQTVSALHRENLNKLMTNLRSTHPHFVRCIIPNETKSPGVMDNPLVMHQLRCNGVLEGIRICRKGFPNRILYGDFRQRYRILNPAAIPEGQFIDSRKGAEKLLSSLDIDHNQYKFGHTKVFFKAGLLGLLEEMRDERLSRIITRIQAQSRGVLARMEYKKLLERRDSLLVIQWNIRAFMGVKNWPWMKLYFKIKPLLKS", "assay": "NADH-linked actin-activated ATPase assay with purified recombinant S1", "assay_type": "biochemical", "description": "NADH-linked actin-activated ATPase assay with purified recombinant S1 on β-cardiac myosin | we measured the IC50 value for β-cardiac myosin S1."}, "[2]": {"biological_target": "T2, Myh7b (Homo sapiens, UniProt A7E2Y1)", "T2 construct": "with actin (porcine ventricles); endogenous C2C12 light chains", "T2 sequence (A7E2Y1 43-892)": "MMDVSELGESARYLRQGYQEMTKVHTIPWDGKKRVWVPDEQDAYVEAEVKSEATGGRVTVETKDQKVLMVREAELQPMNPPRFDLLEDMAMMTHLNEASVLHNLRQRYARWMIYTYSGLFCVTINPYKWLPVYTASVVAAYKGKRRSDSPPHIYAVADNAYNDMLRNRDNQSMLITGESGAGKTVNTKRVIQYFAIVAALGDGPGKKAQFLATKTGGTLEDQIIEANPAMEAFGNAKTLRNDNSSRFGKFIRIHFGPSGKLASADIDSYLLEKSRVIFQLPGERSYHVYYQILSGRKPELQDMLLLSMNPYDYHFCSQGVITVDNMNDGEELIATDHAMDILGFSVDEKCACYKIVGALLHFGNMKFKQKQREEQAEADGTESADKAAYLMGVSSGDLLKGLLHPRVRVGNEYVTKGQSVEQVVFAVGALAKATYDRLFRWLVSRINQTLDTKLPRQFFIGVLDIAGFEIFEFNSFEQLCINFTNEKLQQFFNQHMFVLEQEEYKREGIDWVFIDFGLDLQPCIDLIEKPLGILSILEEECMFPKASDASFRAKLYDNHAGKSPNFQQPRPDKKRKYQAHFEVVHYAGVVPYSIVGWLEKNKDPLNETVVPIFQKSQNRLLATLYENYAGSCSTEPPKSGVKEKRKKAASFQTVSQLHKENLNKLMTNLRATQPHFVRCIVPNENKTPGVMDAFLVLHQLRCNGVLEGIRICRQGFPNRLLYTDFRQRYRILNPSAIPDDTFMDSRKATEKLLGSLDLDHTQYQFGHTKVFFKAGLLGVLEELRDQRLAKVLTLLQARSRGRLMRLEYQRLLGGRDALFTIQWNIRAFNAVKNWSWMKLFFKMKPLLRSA", "assay": "NADH-linked actin-activated ATPase assay with purified recombinant S1", "assay_type": "biochemical"}},
  "data": [
    {"smiles": "Cc1ccc2c(c1)C(=O)[C@]1(O)CCN(c3ccccc3)C1=N2", "note": "[Blebbistatin]", "values": [
      {"measurement": "IC50", "setting": "[1]", "value": "1120 ± 290", "unit": "nM"},
      {"measurement": "IC50", "setting": "[2]", "value": "360 ± 80", "unit": "nM"}
    ]}
  ]
}
